Assay results published in PubChem BioAssay (NCI).
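The concentration for 50% growth inhibition is given as GI50. TGI marks complete inhibition of growth.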

Columns and labels:
Assay in all cases: inhibition of tumour cell growth, NCI panel, 384-well format
MDA-MB-231 breast = tested on: MDA-MB-231 breast
HS 578T breast = tested on: HS 578T breast
OVCAR-8 ovarian = tested on: OVCAR-8 ovarian
NCI/ADR-RES ovarian = tested on: NCI/ADR-RES ovarian
PC-3 prostate = tested on: PC-3 prostate
COLO 205 colon = tested on: COLO 205 colon
RXF 393 renal = tested on: RXF 393 renal
SF-268 CNS = tested on: SF-268 CNS
HOP-92 NSCLC = tested on: HOP-92 NSCLC
TK-10 renal = tested on: TK-10 renal
NCI-H23 lung = tested on: NCI-H23 lung
MDA-MB-468 breast = tested on: MDA-MB-468 breast
HCC-2998 colon = tested on: HCC-2998 colon
MCF7 breast = tested on: MCF7 breast
A549 NSCLC = tested on: A549 NSCLC
BT-549 breast = tested on: BT-549 breast
IGROV1 ovarian = tested on: IGROV1 ovarian
HCT-116 colon = tested on: HCT-116 colon
DU-145 prostate = tested on: DU-145 prostate
SK-MEL-5 melanoma = tested on: SK-MEL-5 melanoma
M14 melanoma = tested on: M14 melanoma
NCI-H226 lung = tested on: NCI-H226 lung
HOP-62 NSCLC = tested on: HOP-62 NSCLC
U251 glioblastoma = tested on: U251 glioblastoma
MALME-3M melanoma = tested on: MALME-3M melanoma
KM12 colon = tested on: KM12 colon
OVCAR-4 ovarian = tested on: OVCAR-4 ovarian
LOX IMVI melanoma = tested on: LOX IMVI melanoma
SR leukemia = tested on: SR leukemia
K-562 leukemia = tested on: K-562 leukemia
SF-295 CNS = tested on: SF-295 CNS
SK-MEL-28 melanoma = tested on: SK-MEL-28 melanoma
HL-60(TB) leukemia = tested on: HL-60(TB) leukemia
EKVX NSCLC = tested on: EKVX NSCLC
A498 renal = tested on: A498 renal
OVCAR-3 ovarian = tested on: OVCAR-3 ovarian
HT29 colon = tested on: HT29 colon
RPMI-8226 leukemia = tested on: RPMI-8226 leukemia
T-47D breast = tested on: T-47D breast
UO-31 renal = tested on: UO-31 renal
HCT-15 colon = tested on: HCT-15 colon
SW-620 colon = tested on: SW-620 colon
OVCAR-5 ovarian = tested on: OVCAR-5 ovarian
SNB-19 CNS = tested on: SNB-19 CNS
MOLT-4 leukemia = tested on: MOLT-4 leukemia
SN12C renal = tested on: SN12C renal
NCI-H460 NSCLC = tested on: NCI-H460 NSCLC
SNB-75 CNS = tested on: SNB-75 CNS
NCI-H322M lung = tested on: NCI-H322M lung
786-0 renal = tested on: 786-0 renal
CCRF-CEM leukemia = tested on: CCRF-CEM leukemia
ACHN renal = tested on: ACHN renal
SF-539 CNS = tested on: SF-539 CNS
NCI-H522 lung = tested on: NCI-H522 lung

How did the GI50 (MDA-MB-231 breast) turn out when `CC(C)(C)c1nc(-c2cccc(NS(=O)(=O)c3c(F)cccc3F)c2F)c(-c2ccnc(N)n2)s1` was run?
The GI50 was 15 µM.

And the TGI (MDA-MB-231 breast)?
Its TGI is 37.4 µM.

And the GI50 (HS 578T breast)?
The GI50 was 33 µM.

What about the TGI (HS 578T breast) of the same compound?
Its TGI is greater than 75.9 µM.

What about the GI50 (OVCAR-8 ovarian) of the same compound?
Its GI50 is 44.3 µM.

And the TGI (OVCAR-8 ovarian)?
The TGI was 89 µM.

And the GI50 (NCI/ADR-RES ovarian)?
The GI50 was 22.6 µM.

And the TGI (NCI/ADR-RES ovarian)?
The TGI was 53.8 µM.

And the GI50 (PC-3 prostate)?
Its GI50 is 48.9 µM.

What about the TGI (PC-3 prostate) of the same compound?
The TGI was greater than 93.6 µM.

What about the GI50 (COLO 205 colon) of the same compound?
Its GI50 is less than 0.01 µM.

What about the GI50 (RXF 393 renal) of the same compound?
Its GI50 is 50.5 µM.

What about the TGI (RXF 393 renal) of the same compound?
Its TGI is greater than 81.6 µM.

And the GI50 (SF-268 CNS)?
The GI50 was 42.3 µM.

And the TGI (SF-268 CNS)?
The TGI was greater than 84.5 µM.

What about the GI50 (HOP-92 NSCLC) of the same compound?
Its GI50 is 50 µM.

And the TGI (HOP-92 NSCLC)?
Its TGI is greater than 94 µM.

What about the GI50 (TK-10 renal) of the same compound?
Its GI50 is 11.7 µM.

And the TGI (TK-10 renal)?
The TGI was greater than 60.7 µM.

And the GI50 (NCI-H23 lung)?
Its GI50 is 13.7 µM.

And the TGI (NCI-H23 lung)?
Its TGI is 52.3 µM.

What about the GI50 (MDA-MB-468 breast) of the same compound?
Its GI50 is 28.6 µM.

What about the TGI (MDA-MB-468 breast) of the same compound?
The TGI was 57.7 µM.

And the GI50 (HCC-2998 colon)?
The GI50 was 34.8 µM.

What about the TGI (HCC-2998 colon) of the same compound?
The TGI was greater than 74.7 µM.

And the GI50 (MCF7 breast)?
Its GI50 is 25.3 µM.

What about the TGI (MCF7 breast) of the same compound?
The TGI was 62.6 µM.

And the GI50 (A549 NSCLC)?
The GI50 was 20.2 µM.

And the TGI (A549 NSCLC)?
Its TGI is 72.5 µM.

And the GI50 (BT-549 breast)?
The GI50 was 42.7 µM.

What about the TGI (BT-549 breast) of the same compound?
The TGI was 70.1 µM.

What about the GI50 (IGROV1 ovarian) of the same compound?
Its GI50 is 7.65 µM.

And the TGI (IGROV1 ovarian)?
The TGI was greater than 52.6 µM.

What about the GI50 (HCT-116 colon) of the same compound?
The GI50 was 11.7 µM.

What about the TGI (HCT-116 colon) of the same compound?
The TGI was greater than 66.4 µM.

And the GI50 (DU-145 prostate)?
Its GI50 is 14.9 µM.

What about the TGI (DU-145 prostate) of the same compound?
The TGI was 41.6 µM.

And the GI50 (SK-MEL-5 melanoma)?
The GI50 was less than 0.01 µM.

What about the TGI (SK-MEL-5 melanoma) of the same compound?
The TGI was greater than 100 µM.

What about the GI50 (M14 melanoma) of the same compound?
Its GI50 is less than 0.01 µM.

And the TGI (M14 melanoma)?
Its TGI is less than 0.017 µM.

What about the GI50 (NCI-H226 lung) of the same compound?
Its GI50 is 22.1 µM.

And the TGI (NCI-H226 lung)?
Its TGI is 67 µM.

What about the GI50 (HOP-62 NSCLC) of the same compound?
Its GI50 is 55.5 µM.

What about the TGI (HOP-62 NSCLC) of the same compound?
The TGI was greater than 100 µM.

What about the GI50 (U251 glioblastoma) of the same compound?
Its GI50 is 53.8 µM.

What about the TGI (U251 glioblastoma) of the same compound?
Its TGI is greater than 100 µM.

What about the GI50 (MALME-3M melanoma) of the same compound?
Its GI50 is less than 0.01 µM.

And the GI50 (KM12 colon)?
Its GI50 is 27.7 µM.

What about the TGI (KM12 colon) of the same compound?
Its TGI is greater than 70.9 µM.

What about the GI50 (OVCAR-4 ovarian) of the same compound?
The GI50 was 24.9 µM.

And the TGI (OVCAR-4 ovarian)?
Its TGI is 52 µM.

And the GI50 (LOX IMVI melanoma)?
The GI50 was 1.28 µM.

What about the TGI (LOX IMVI melanoma) of the same compound?
Its TGI is greater than 63.8 µM.

And the GI50 (SR leukemia)?
The GI50 was 6.62 µM.

What about the TGI (SR leukemia) of the same compound?
Its TGI is 23.8 µM.

And the GI50 (K-562 leukemia)?
Its GI50 is 4.59 µM.

What about the TGI (K-562 leukemia) of the same compound?
Its TGI is 20.7 µM.

What about the GI50 (SF-295 CNS) of the same compound?
The GI50 was 48.1 µM.

And the TGI (SF-295 CNS)?
Its TGI is greater than 100 µM.

What about the GI50 (SK-MEL-28 melanoma) of the same compound?
Its GI50 is less than 0.01 µM.

What about the GI50 (HL-60(TB) leukemia) of the same compound?
The GI50 was 3.98 µM.

What about the TGI (HL-60(TB) leukemia) of the same compound?
Its TGI is 27.3 µM.

And the GI50 (EKVX NSCLC)?
Its GI50 is 26.6 µM.

What about the TGI (EKVX NSCLC) of the same compound?
Its TGI is 59.6 µM.

And the GI50 (A498 renal)?
The GI50 was 60 µM.

What about the TGI (A498 renal) of the same compound?
The TGI was greater than 94.6 µM.

And the GI50 (OVCAR-3 ovarian)?
The GI50 was 34.1 µM.

And the TGI (OVCAR-3 ovarian)?
The TGI was 60.8 µM.

What about the GI50 (HT29 colon) of the same compound?
The GI50 was 0.0124 µM.

What about the TGI (HT29 colon) of the same compound?
The TGI was greater than 58.4 µM.

What about the GI50 (RPMI-8226 leukemia) of the same compound?
The GI50 was 5.83 µM.

And the TGI (RPMI-8226 leukemia)?
Its TGI is 19.7 µM.

And the GI50 (T-47D breast)?
Its GI50 is 41.5 µM.

And the TGI (T-47D breast)?
The TGI was greater than 100 µM.

What about the GI50 (UO-31 renal) of the same compound?
Its GI50 is 16.6 µM.

What about the TGI (UO-31 renal) of the same compound?
Its TGI is greater than 100 µM.

What about the GI50 (HCT-15 colon) of the same compound?
The GI50 was 26 µM.

And the TGI (HCT-15 colon)?
Its TGI is greater than 74.4 µM.

And the GI50 (SW-620 colon)?
Its GI50 is 32.4 µM.

And the TGI (SW-620 colon)?
Its TGI is greater than 77.4 µM.

And the GI50 (OVCAR-5 ovarian)?
The GI50 was 23.8 µM.

What about the TGI (OVCAR-5 ovarian) of the same compound?
Its TGI is greater than 85.2 µM.

What about the GI50 (SNB-19 CNS) of the same compound?
The GI50 was 48.7 µM.

What about the TGI (SNB-19 CNS) of the same compound?
The TGI was greater than 100 µM.

And the GI50 (MOLT-4 leukemia)?
Its GI50 is 6.59 µM.

And the TGI (MOLT-4 leukemia)?
Its TGI is 24.3 µM.

And the GI50 (SN12C renal)?
Its GI50 is 38.4 µM.

And the TGI (SN12C renal)?
Its TGI is greater than 100 µM.

What about the GI50 (NCI-H460 NSCLC) of the same compound?
The GI50 was 29.3 µM.

What about the TGI (NCI-H460 NSCLC) of the same compound?
Its TGI is greater than 75.7 µM.

And the GI50 (SNB-75 CNS)?
Its GI50 is greater than 62.8 µM.

What about the TGI (SNB-75 CNS) of the same compound?
Its TGI is greater than 81.3 µM.

And the GI50 (NCI-H322M lung)?
The GI50 was 23 µM.

What about the TGI (NCI-H322M lung) of the same compound?
Its TGI is 69.8 µM.

And the GI50 ([…]-0 renal)?
Its GI50 is 43.8 µM.

And the TGI (786-0 renal)?
Its TGI is greater than 100 µM.

And the GI50 (CCRF-CEM leukemia)?
The GI50 was 14.4 µM.

And the TGI (CCRF-CEM leukemia)?
Its TGI is greater than 44.1 µM.

And the GI50 (ACHN renal)?
The GI50 was 0.183 µM.

And the TGI (ACHN renal)?
Its TGI is greater than 100 µM.

What about the GI50 (SF-539 CNS) of the same compound?
The GI50 was 49.7 µM.

And the TGI (SF-539 CNS)?
The TGI was greater than 94.2 µM.

What about the GI50 (NCI-H522 lung) of the same compound?
Its GI50 is 7.22 µM.

And the TGI (NCI-H522 lung)?
Its TGI is 41 µM.
